What is called MIC is the least concentration at which growth counts as inhibited. Low readings indicate a more susceptible organism, high ones a less susceptible organism.

Converted amounts (≈) assume the structure as drawn.

Here are results for six compounds from DBAASP.

Among the test systems are Escherichia coli AB94012; Staphylococcus xylosus; Staphylococcus aureus; Acinetobacter baumannii; Klebsiella pneumoniae; Bacillus subtilis 168; Escherichia coli B; Escherichia coli ST131; Pseudomonas aeruginosa.
What all share (experiment): ≥ marks a high value that may be exact or a test limit, other limits are often not marked, values filed in µg/mL are converted to µM
The test system of test [1] is Bacillus subtilis AB91021.
For test [2], the system named is Staphylococcus epidermidis P1111.
The test system of test [3] is Bacillus thuringiensis AB92037.
Test [4] concerns Staphylococcus aureus P1386.
Test [5] has as its system Staphylococcus aureus AB94004.
The subject of test [6] is Pseudomonas aeruginosa AB93066.
Test [7] relates to Staphylococcus epidermidis P1389.
Test [8] relates to Micrococcus luteus AB93113.
The test system of test [9] is Staphylococcus aureus P1374.
Test [10] has as its system Staphylococcus aureus P1369.
Test [11] has as its system Staphylococcus epidermidis ATCC 12228.
The test system of test [12] is Staphylococcus aureus ATCC 6538P.
Test [13] relates to Bacillus subtilis ATCC 6633.
Test [14] deals with Klebsiella pneumoniae ATCC 10031.
The subject of test [15] is Salmonella enterica subsp. enterica serovar Typhimurium ATCC 14028.
The subject of test [16] is Micrococcus luteus ATCC 10240.
For test [17], the system named is Staphylococcus aureus TK784.
Test [18] deals with Escherichia coli ATCC 25922.
The subject of test [19] is Pseudomonas aeruginosa ATCC 27853.
In test [20] the test system is Shigella dysenteriae ATCC 9752.
Test [21] has as its system Staphylococcus aureus CIP 53.156.
Test [22] relates to Staphylococcus xylosus ATCC 35033.
Test [23] relates to Staphylococcus epidermidis RP62A/1.
The subject of test [24] is Candida albicans ATCC 90028.
Test [25] concerns Stenotrophomonas maltophilia.
For test [26], the system named is Staphylococcus epidermidis RP62A.
Test [27] concerns Klebsiella pneumoniae ATCC 700603.
Test [28] concerns Proteus mirabilis ATCC 25933.
The test system of test [29] is Escherichia coli ATCC 25726.
Test [30] has as its system Staphylococcus aureus ATCC 29213.
Test [31] relates to Staphylococcus aureus ATCC 25923.
For test [32], the system named is Klebsiella pneumoniae ST258.
For test [33], the system named is Batrachochytrium dendrobatidis.

Consider `CC[C@H](C)[C@H](NC(=O)[C@H](C)NC(=O)[C@H](CO)NC(=O)[C@@H](NC(=O)[C@H](CC(C)C)NC(=O)CNC(=O)CNC(=O)[C@@H](NC(=O)[C@H](CC(C)C)NC(=O)[C@H](CO)NC(=O)[C@@H]1CCCN1C(=O)[C@H](CC(C)C)NC(=O)[C@H](CC(C)C)NC(=O)[C@H](CO)NC(=O)[C@H](Cc1ccccc1)NC(=O)[C@@H](N)Cc1ccccc1)[C@@H](C)CC)C(C)C)C(=O)N[C@@H](CCCCN)C(N)=O` [FFSLLPSLIGGLVSAIK], for which the MIC in [1] was 28.4 µM (≈ 50 µg/mL); in test [2], 11.3 µM (≈ 20 µg/mL); in [3], 28.4 µM (≈ 50 µg/mL); in test [4], 28.4 µM (≈ 50 µg/mL); in test [5], 11.3 µM (≈ 20 µg/mL); in test [6], at least 56.7 µM. Besides, the MIC is 28.4 µM (≈ 50 µg/mL) in test [7]; 11.3 µM (≈ 20 µg/mL) in test [8]; 28.4 µM (≈ 50 µg/mL) in test [9]; 28.4 µM (≈ 50 µg/mL) in test [10]; at least 56.7 µM against Escherichia coli AB94012.
As to `CC(C)C[C@H](NC(=O)[C@H](CC(C)C)NC(=O)[C@H](CCCCN)NC(=O)[C@H](CCCCN)NC(=O)[C@H](CC(C)C)NC(=O)[C@H](Cc1c[nH]c2ccccc12)NC(=O)[C@H](CCCCN)NC(=O)[C@H](CC(C)C)NC(=O)[C@@H](N)CC(C)C)C(=O)N[C@@H](CCCCN)C(=O)N[C@@H](CCCCN)C(N)=O` [LLKWLKKLLKK], the MIC was 1.42 µM (≈ 2 µg/mL) in test [11]; 1.42 µM (≈ 2 µg/mL) in test [12]; 1.42 µM (≈ 2 µg/mL) in test [13]; 2.84 µM (≈ 4 µg/mL) in test [14]; 2.84 µM (≈ 4 µg/mL) in [15]; 2.84 µM (≈ 4 µg/mL) in [16]. The MIC is 11.3 µM (≈ 16 µg/mL) in [17], 2.84 µM (≈ 4 µg/mL) in test [18], 2.84 µM (≈ 4 µg/mL) in test [19] and 1.42 µM (≈ 2 µg/mL) in [20].
On to `CC[C@H](C)[C@H](NC(=O)[C@@H](N)CCCCN)C(=O)N[C@@H](CCCCN)C(=O)N[C@H](C(=O)N1CCC[C@H]1C(=O)N[C@@H](Cc1c[nH]c2ccccc12)C(=O)NCC(=O)N[C@@H](CCCCN)C(=O)N[C@H](C(=O)N[C@@H](CCCCN)C(=O)N[C@@H](CC(=O)O)C(=O)N[C@@H](Cc1ccccc1)C(=O)N[C@@H](CC(C)C)C(=O)N[C@H](C(=O)NCC(=O)NCC(=O)N[C@@H](CCSC)C(=O)N[C@@H](CCCCN)C(=O)N[C@@H](C)C(=O)N[C@H](C(=O)O)C(C)C)C(C)C)C(C)C)[C@@H](C)CC` [KIKIPWGKVKDFLVGGMKAV], for which the MIC in the test with Staphylococcus xylosus is 1.35 µM (≈ 3 µg/mL); in test [21], at least 57 µM; in [22], 2.08 µM (≈ 4.6 µg/mL); against Staphylococcus aureus, 15.4 µM (≈ 34 µg/mL).
In the case of `CC[C@H](C)[C@H](N)C(=O)N[C@@H](CCCCN)C(=O)N[C@@H](CC(C)C)C(=O)N[C@@H](CO)C(=O)N1CCC[C@H]1C(=O)N[C@@H](CCC(=O)O)C(=O)N[C@H](C(=O)N[C@@H](CCCCN)C(=O)N[C@@H](CC(=O)O)C(=O)N[C@@H](CC(N)=O)C(=O)N[C@@H](CC(C)C)C(=O)N[C@@H](CCCCN)C(=O)N[C@@H](CCCCN)C(=O)N[C@H](C(=O)N[C@@H](CC(C)C)C(=O)N[C@@H](CCCCN)C(=O)NCC(=O)N[C@@H](C)C(=O)N[C@H](C(=O)N[C@@H](CCCCN)C(=O)NCC(=O)N[C@@H](C)C(=O)N[C@H](C(=O)N[C@@H](C)C(=O)N[C@H](C(=O)N[C@@H](C)C(=O)N[C@@H](CCCCN)C(=O)N[C@@H](CCSC)C(=O)N[C@H](C(N)=O)C(C)C)C(C)C)[C@@H](C)CC)[C@@H](C)CC)C(C)C)[C@@H](C)O` [IKLSPETKDNLKKVLKGAIKGAIAVAKMV], the MIC was 1.6 µM (≈ 4.9 µg/mL) in test [23]; at least 80 µM in [24]; 6.25 µM (≈ 19.1 µg/mL) in test [25]; 3.1 µM (≈ 9.5 µg/mL) in [26]; 6.25 µM (≈ 19.1 µg/mL) in the test with Acinetobacter baumannii; 20 µM (≈ 61.3 µg/mL) in test [27]. Also, the MIC in test [28] is at least 100 µM; in test [29] it was 20 µM (≈ 61.3 µg/mL); in the test on Klebsiella pneumoniae it was 25 µM (≈ 76.6 µg/mL); in [30] it was 12.5 µM (≈ 38.3 µg/mL); in test [31], 10 µM (≈ 30.6 µg/mL); in test [19], 40 µM (≈ 123 µg/mL).
Consider `CC[C@H](C)[C@H](NC(=O)[C@H](CC(C)C)NC(=O)[C@H](CCCCN)NC(=O)CNC(=O)[C@H](CC(C)C)NC(=O)[C@@H](NC(=O)[C@H](CCCCN)NC(=O)[C@H](CCCCN)NC(=O)[C@H](Cc1c[nH]c2ccccc12)NC(=O)[C@H](CCCCN)NC(=O)CN)[C@@H](C)CC)C(=O)N[C@@H](CCCN=C(N)N)C(N)=O` [GKWKKILGKLIR], for which the MIC turned out to be 1.3 µM (≈ 1.87 µg/mL) in the test with Bacillus subtilis 168; 1.8 µM (≈ 2.59 µg/mL) against Escherichia coli B; 2 µM (≈ 2.88 µg/mL) with Escherichia coli ST131; 60 µM (≈ 86.3 µg/mL) in the test on Staphylococcus aureus; 14.2 µM (≈ 20.4 µg/mL) with Pseudomonas aeruginosa; 2 µM (≈ 2.88 µg/mL) in test [18]. The MIC in test [32] is at least 32 µM.
In the case of `CC[C@H](C)[C@H](NC(=O)CN)C(=O)N[C@@H](CCSC)C(=O)N[C@@H](CC(=O)O)C(=O)N[C@@H](CO)C(=O)N[C@H](C(=O)N[C@@H](CCCCN)C(=O)NCC(=O)N[C@@H](CC(C)C)C(=O)N[C@@H](C)C(=O)N[C@@H](CCCCN)C(=O)N[C@@H](CC(N)=O)C(=O)N[C@@H](CC(C)C)C(=O)N[C@@H](C)C(=O)NCC(=O)N[C@@H](CCCCN)C(=O)N[C@@H](CC(C)C)C(=O)N[C@@H](CC(C)C)C(=O)N[C@@H](CC(=O)O)C(=O)N[C@@H](CO)C(=O)N[C@@H](CC(C)C)C(=O)N[C@@H](CCCCN)C(=O)N[C@H]1CSSC[C@@H](C(=O)O)NC(=O)CNC(=O)[C@H]([C@@H](C)O)NC(=O)[C@H]([C@@H](C)CC)NC(=O)[C@H](CCCCN)NC1=O)C(C)C` [GIMDSVKGLAKNLAGKLLDSLKCKITGC], the MIC stood at 12.5 µM (≈ 35.9 µg/mL) in [33] and 17 µM (≈ 48.9 µg/mL) in test [18].
